What was measured:
Experiment in all cases: cells
NCI-H1650 = type: functional, cell-based; details: Homo sapiens;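 also: growth inhibition of human NCI-H1650 cells measured by a cell viability assay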
Description: SANGER: Inhibition of human NCI-H1650 cell growth in a cell viability assay.

MMAC-SF = type: functional, cell-based; details: Homo sapiens;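 also: growth inhibition of human MMAC-SF cells, read out with a cell viability assay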
Description: SANGER: Inhibition of human MMAC-SF cell growth in a cell viability assay.

ES4 = type: functional, cell-based; details: Homo sapiens;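 also: growth inhibition of human ES4 cells, read out by a cell viability assay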
Description: SANGER: Inhibition of human ES4 cell growth in a cell viability assay.

TGBC24TKB = type: functional, cell-based; details: Homo sapiens;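 also: growth inhibition of human TGBC24TKB cells, read out with a cell viability assay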
Description: SANGER: Inhibition of human TGBC24TKB cell growth in a cell viability assay.

KG-1 = type: functional, cell-based; details: Homo sapiens;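 also: growth inhibition of KG-1 cells, read out by a cell viability assay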
Description: SANGER: Inhibition of human KG-1 cell growth in a cell viability assay.

HDLM-2 = type: functional, cell-based; details: Homo sapiens;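 also: cell viability assay measuring suppression of HDLM-2 proliferation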
Description: SANGER: Inhibition of human HDLM-2 cell growth in a cell viability assay.

NCI-H1581 = type: functional, cell-based; details: Homo sapiens;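 also: cell growth inhibition read out by a viability assay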
Description: SANGER: Inhibition of human NCI-H1581 cell growth in a cell viability assay.

D-502MG = type: functional, cell-based; details: Homo sapiens
Description: SANGER: Inhibition of human D-502MG cell growth in a cell viability assay.

ES6 = type: functional, cell-based; details: Homo sapiens;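 also: growth inhibition of human ES6 cells, read out with a cell viability assay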
Description: SANGER: Inhibition of human ES6 cell growth in a cell viability assay.

KNS-81-FD = type: functional, cell-based; details: Homo sapiens;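 also: growth inhibition of KNS-81-FD cells, read out with a cell viability assay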
Description: SANGER: Inhibition of human KNS-81-FD cell growth in a cell viability assay.

LC-1F = type: functional, cell-based; details: Homo sapiens;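 also: growth inhibition of human LC-1F cells, read out with a cell viability assay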
Description: SANGER: Inhibition of human LC-1F cell growth in a cell viability assay.

ATN-1 = type: functional, cell-based; details: Homo sapiens;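 also: growth inhibition of human ATN-1 cells, read out with a cell viability assay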
Description: SANGER: Inhibition of human ATN-1 cell growth in a cell viability assay.

HCC2218 = type: functional, cell-based; details: Homo sapiens;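 also: cell viability assay read-out, with IC50 given as the concentration that inhibits growth of the cell line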
Description: SANGER: Inhibition of human HCC2218 cell growth in a cell viability assay.

MDA-MB-134-VI = type: functional, cell-based; details: Homo sapiens
Description: SANGER: Inhibition of human MDA-MB-134-VI cell growth in a cell viability assay.

Becker = type: functional, cell-based; details: Homo sapiens;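 also: growth inhibition of Becker cells, read out with a cell viability assay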
Description: SANGER: Inhibition of human Becker cell growth in a cell viability assay.

DJM-1 = type: functional, cell-based; details: Homo sapiens;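 also: growth inhibition of human DJM-1 cells, read out by a cell viability assay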
Description: SANGER: Inhibition of human DJM-1 cell growth in a cell viability assay.

HAL-01 = type: functional, cell-based; details: Homo sapiens;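 also: growth inhibition of human HAL-01 cells, read out with a cell viability assay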
Description: SANGER: Inhibition of human HAL-01 cell growth in a cell viability assay.

EKVX = type: functional, cell-based; details: Homo sapiens;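 also: growth inhibition of human EKVX cells, read out with a cell viability assay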
Description: SANGER: Inhibition of human EKVX cell growth in a cell viability assay.

CAL-12T = type: functional, cell-based, Homo sapiens; details: Homo sapiens, CAL-12T;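 also: growth inhibition of human CAL-12T cells, read out with a cell viability assay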
Description: SANGER: Inhibition of human CAL-12T cell growth in a cell viability assay.

EW-13 = type: functional, cell-based; details: Homo sapiens;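 also: growth inhibition of EW-13 cells, read out with a cell viability assay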
Description: SANGER: Inhibition of human EW-13 cell growth in a cell viability assay.

SCH = type: functional, cell-based; details: Homo sapiens;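 also: growth inhibition of human SCH cells, read out in a cell viability assay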
Description: SANGER: Inhibition of human SCH cell growth in a cell viability assay.

TGBC1TKB = type: functional, cell-based; details: Homo sapiens;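 also: growth inhibition of TGBC1TKB cells, read out by a cell viability assay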
Description: SANGER: Inhibition of human TGBC1TKB cell growth in a cell viability assay.

RPMI-8226 = type: functional, cell-based; details: Homo sapiens
Description: SANGER: Inhibition of human RPMI-8226 cell growth in a cell viability assay.

KARPAS-299 = type: functional, cell-based; details: Homo sapiens
Description: SANGER: Inhibition of human KARPAS-299 cell growth in a cell viability assay.

LB2518-MEL = type: functional, cell-based; details: Homo sapiens;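 also: growth inhibition of human LB2518-MEL cells, measured with a cell viability assay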
Description: SANGER: Inhibition of human LB2518-MEL cell growth in a cell viability assay.

NB69 = type: functional, cell-based; details: Homo sapiens;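 also: growth inhibition of NB69 cells, determined by a cell viability assay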
Description: SANGER: Inhibition of human NB69 cell growth in a cell viability assay.

RPMI-8866 = type: functional, cell-based; details: Homo sapiens
Description: SANGER: Inhibition of human RPMI-8866 cell growth in a cell viability assay.

SF-539 = type: functional, cell-based; details: Homo sapiens;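 also: Read-out is a cell viability assay, with IC50 reflecting inhibition of cell growth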
Description: SANGER: Inhibition of human SF539 cell growth in a cell viability assay.

SW-620 = type: functional, cell-based; details: Homo sapiens;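 also: growth inhibition of human SW-620 cells, measured by a cell viability assay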
Description: SANGER: Inhibition of human SW620 cell growth in a cell viability assay.

TE-8 = type: functional, cell-based; details: Homo sapiens;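 also: growth inhibition of TE-8 cells, measured with a cell viability readout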
Description: SANGER: Inhibition of human TE-8 cell growth in a cell viability assay.

NCI-H1838 = type: functional, cell-based; details: Homo sapiens;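 also: growth inhibition of NCI-H1838 cells, determined with a cell viability readout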
Description: SANGER: Inhibition of human NCI-H1838 cell growth in a cell viability assay.

BV-173 = type: functional, cell-based; details: Homo sapiens
Description: SANGER: Inhibition of human BV-173 cell growth in a cell viability assay.

RCC10RGB = type: functional, cell-based; details: Homo sapiens;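 also: growth inhibition of human RCC10RGB cells, read out by a cell viability assay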
Description: SANGER: Inhibition of human RCC10RGB cell growth in a cell viability assay.

JVM-2 = type: functional, cell-based; details: Homo sapiens;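 also: growth inhibition of JVM-2 cells determined by a cell viability assay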
Description: SANGER: Inhibition of human JVM-2 cell growth in a cell viability assay.

NCI-H1563 = type: functional, cell-based; details: Homo sapiens;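 also: growth inhibition of human NCI-H1563 cells, read out with a cell viability assay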
Description: SANGER: Inhibition of human NCI-H1563 cell growth in a cell viability assay.

Ramos-2G6-4C10 = type: functional, cell-based; details: Homo sapiens;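 also: growth inhibition of the cell line, measured by a cell viability read-out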
Description: SANGER: Inhibition of human Ramos-2G6-4C10 cell growth in a cell viability assay.

NCI-H1304 = type: functional, cell-based; details: Homo sapiens;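 also: growth inhibition of the cancer cell line, measured in a cell viability assay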
Description: SANGER: Inhibition of human NCI-H1304 cell growth in a cell viability assay.

MC-CAR = type: functional, cell-based; details: Homo sapiens;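 also: growth inhibition of the human MC-CAR cell line, read out by a cell viability assay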
Description: SANGER: Inhibition of human MC-CAR cell growth in a cell viability assay.

HOS = type: functional, cell-based; details: Homo sapiens;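 also: growth inhibition of human HOS cells, read out with a cell viability assay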
Description: SANGER: Inhibition of human HOS cell growth in a cell viability assay.

SK-UT-1 = type: functional, cell-based; details: Homo sapiens;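 also: growth inhibition of SK-UT-1 cells, measured by a cell viability assay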
Description: SANGER: Inhibition of human SK-UT-1 cell growth in a cell viability assay.

NB13 = type: functional, cell-based; details: Homo sapiens;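 also: cell viability readout measuring growth inhibition of human NB13 cells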
Description: SANGER: Inhibition of human NB13 cell growth in a cell viability assay.

NCI-H1693 = type: functional, cell-based; details: Homo sapiens;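 also: growth inhibition of the human cell line, read out with a cell viability assay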
Description: SANGER: Inhibition of human NCI-H1693 cell growth in a cell viability assay.

JVM-3 = type: functional, cell-based; details: Homo sapiens;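 also: growth inhibition of human JVM-3 cells, read out with a cell viability assay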
Description: SANGER: Inhibition of human JVM-3 cell growth in a cell viability assay.

LB1047-RCC = type: functional, cell-based; details: Homo sapiens;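 also: inhibition of cell growth, determined with a cell viability assay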
Description: SANGER: Inhibition of human LB1047-RCC cell growth in a cell viability assay.

SK-LMS-1 = type: functional, cell-based; details: Homo sapiens;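 also: growth inhibition of human SK-LMS-1 cells, read out with a cell viability assay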
Description: SANGER: Inhibition of human SK-LMS-1 cell growth in a cell viability assay.

BB65-RCC = type: functional, cell-based; details: Homo sapiens;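 also: growth inhibition of the cell line, measured with a cell viability assay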
Description: SANGER: Inhibition of human BB65-RCC cell growth in a cell viability assay.

OMC-1 = type: functional, cell-based; details: Homo sapiens;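 also: growth inhibition of the OMC-1 cell line, measured by a cell viability assay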
Description: SANGER: Inhibition of human OMC-1 cell growth in a cell viability assay.

697 = type: functional, cell-based; details: Homo sapiens
Description: SANGER: Inhibition of human 697 cell growth in a cell viability assay.

SK-N-DZ = type: functional, cell-based; details: Homo sapiens;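 also: growth inhibition of the cancer cell line, read out through a viability assay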
Description: SANGER: Inhibition of human SK-N-DZ cell growth in a cell viability assay.

SK-MEL-1 = type: functional, cell-based; details: Homo sapiens;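 also: growth inhibition of human SK-MEL-1 cells, read out by a cell viability assay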
Description: SANGER: Inhibition of human SK-MEL-1 cell growth in a cell viability assay.

KARPAS-45 = type: functional, cell-based; details: Homo sapiens;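 also: inhibition of cell line growth, read out through a viability assay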
Description: SANGER: Inhibition of human KARPAS-45 cell growth in a cell viability assay.

KM-H2 = type: functional, cell-based; details: Homo sapiens;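 also: growth inhibition of KM-H2 cells, read out by a cell viability assay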
Description: SANGER: Inhibition of human KM-H2 cell growth in a cell viability assay.

MeWo = type: functional, cell-based; details: Homo sapiens;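 also: growth inhibition of MeWo cells, determined by a cell viability readout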
Description: SANGER: Inhibition of human Mewo cell growth in a cell viability assay.

NCI-H1395 = type: functional, cell-based; details: Homo sapiens;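 also: cell viability assay read-out quantifying reduced proliferation of human NCI-H1395 cells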
Description: SANGER: Inhibition of human NCI-H1395 cell growth in a cell viability assay.

A4-Fuk = type: functional, cell-based; details: Homo sapiens;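 also: growth inhibition of A4-Fuk cells, read out by a cell viability assay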
Description: SANGER: Inhibition of human A4-Fuk cell growth in a cell viability assay.

NCI-H2196 = type: functional, cell-based; details: Homo sapiens;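 also: cell viability assay used as the readout of growth inhibition in NCI-H2196 cells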
Description: SANGER: Inhibition of human NCI-H2196 cell growth in a cell viability assay.

HOP-62 = type: functional, cell-based; details: Homo sapiens
Description: SANGER: Inhibition of human HOP-62 cell growth in a cell viability assay.

HCC1187 = type: functional, cell-based; details: Homo sapiens
Description: SANGER: Inhibition of human HCC1187 cell growth in a cell viability assay.

MOLT-16 = type: functional, cell-based; details: Homo sapiens
Description: SANGER: Inhibition of human MOLT-16 cell growth in a cell viability assay.

SCC-3 = type: functional, cell-based; details: Homo sapiens
Description: SANGER: Inhibition of human SCC-3 cell growth in a cell viability assay.

A498 = type: functional, cell-based; details: Homo sapiens
Description: SANGER: Inhibition of human A498 cell growth in a cell viability assay.

GI-1 = type: functional, cell-based; details: Homo sapiens
Description: SANGER: Inhibition of human GI-1 cell growth in a cell viability assay.

SK-NEP-1 = type: functional, cell-based; details: Homo sapiens
Description: SANGER: Inhibition of human SK-NEP-1 cell growth in a cell viability assay.

MHH-PREB-1 = type: functional, cell-based; details: Homo sapiens
Description: SANGER: Inhibition of human MHH-PREB-1 cell growth in a cell viability assay.

ES5 = type: functional, cell-based; details: Homo sapiens
Description: SANGER: Inhibition of human ES5 cell growth in a cell viability assay.

`CC(C)=CC[C@@H](O)C1=CC(=O)c2c(O)ccc(O)c2C1=O` [SHIKONIN] was tested, and the IC50 (NCI-H1650) was 1380 nM, the IC50 (MMAC-SF) was 752 nM and the IC50 (ES4) was 4630 nM. The IC50 (TGBC24TKB) was over 16000 nM, the IC50 (KG-1) was 1600 nM and the IC50 (HDLM-2) was over 16000 nM. For the same molecule, the IC50 (NCI-H1581) was over 16000 nM, the IC50 (D-502MG) was 4370 nM and the IC50 (ES6) was 7880 nM. For the same molecule, the IC50 (KNS-81-FD) was 1080 nM, the IC50 (LC-1F) was over 16000 nM and the IC50 (ATN-1) was 849 nM. It also gave an IC50 (HCC2218) of 496 nM, an IC50 (MDA-MB-134-VI) of 709 nM and an IC50 (Becker) of 1580 nM. The IC50 (DJM-1) was 6390 nM, the IC50 (HAL-01) was 196 nM and the IC50 (EKVX) was 3670 nM. The IC50 (CAL-12T) was 1900 nM, the IC50 (EW-13) was 267 nM and the IC50 (SCH) was over 16000 nM. The IC50 (TGBC1TKB) was 1430 nM, the IC50 (RPMI-8226) was 472 nM and the IC50 (KARPAS-299) was 799 nM. For the same molecule, the IC50 (LB2518-MEL) was 3280 nM, the IC50 (NB69) was 213 nM and the IC50 (RPMI-8866) was 536 nM. For the same molecule, the IC50 (SF-539) was 857 nM, the IC50 (SW-620) was 359 nM and the IC50 (TE-8) was 1280 nM. It also gave an IC50 (NCI-H1838) of over 16000 nM, an IC50 (BV-173) of 436 nM and an IC50 (RCC10RGB) of 1560 nM. For the same molecule, the IC50 (JVM-2) was 3870 nM, the IC50 (NCI-H1563) was 626 nM and the IC50 (Ramos-2G6-4C10) was 315 nM. For the same molecule, the IC50 (NCI-H1304) was over 16000 nM, the IC50 (MC-CAR) was 814 nM and the IC50 (HOS) was 186 nM. The IC50 (SK-UT-1) was under 62.5 nM, the IC50 (NB13) was 317 nM and the IC50 (NCI-H1693) was over 16000 nM. It also gave an IC50 (JVM-3) of over 16000 nM, an IC50 (LB1047-RCC) of 302 nM and an IC50 (SK-LMS-1) of 108 nM. For the same molecule, the IC50 (BB65-RCC) was 695 nM, the IC50 (OMC-1) was 1750 nM and the IC50 697 was 876 nM. For the same molecule, the IC50 (SK-N-DZ) was 1800 nM, the IC50 (SK-MEL-1) was over 16000 nM and the IC50 (KARPAS-45) was 9990 nM. The IC50 (KM-H2) was 1040 nM, the IC50 (MeWo) was 517 nM and the IC50 (NCI-H1395) was over 16000 nM. For the same molecule, the IC50 (A4-Fuk) was 250 nM, the IC50 (NCI-H2196) was 654 nM and the IC50 (HOP-62) was 1160 nM. The IC50 (HCC1187) was 1020 nM, the IC50 (MOLT-16) was 2760 nM and the IC50 (SCC-3) was 1000 nM. The IC50 (A498) was 81.9 nM, the IC50 (GI-1) was 568 nM and the IC50 (SK-NEP-1) was 1080 nM. For the same molecule, the IC50 (MHH-PREB-1) was 252 nM and the IC50 (ES5) was 2630 nM.
`C/C=C(/C)C(=O)O[C@H]1C(C)=C2[C@H]([C@@H]1OC(=O)CCCCCCC)[C@@](C)(OC(C)=O)C[C@H](OC(=O)CCC)[C@@]1(O)[C@H]2OC(=O)[C@@]1(C)O` [THAPSIGARGIN] was tested, and the IC50 (NCI-H1650) was 147 nM, the IC50 (MMAC-SF) was 28.3 nM and the IC50 (ES4) was under 2 nM. For the same molecule, the IC50 (TGBC24TKB) was under 2 nM, the IC50 (KG-1) was 67.4 nM and the IC50 (HDLM-2) was 215 nM. It also gave an IC50 (NCI-H1581) of 0.55 nM, an IC50 (D-502MG) of 343 nM and an IC50 (ES6) of under 2 nM. For the same molecule, the IC50 (KNS-81-FD) was over 512 nM, the IC50 (LC-1F) was 4.19 nM and the IC50 (ATN-1) was 32 nM. The IC50 (HCC2218) was 58.9 nM, the IC50 (MDA-MB-134-VI) was over 512 nM and the IC50 (Becker) was 135 nM. It also gave an IC50 (DJM-1) of 54.7 nM, an IC50 (HAL-01) of 301 nM and an IC50 (EKVX) of 250 nM. It also gave an IC50 (CAL-12T) of under 2 nM, an IC50 (EW-13) of 2.31 nM and an IC50 (SCH) of over 512 nM. The IC50 (TGBC1TKB) was 0.509 nM, the IC50 (RPMI-8226) was 14.9 nM and the IC50 (KARPAS-299) was 35.6 nM. The IC50 (LB2518-MEL) was 17.3 nM, the IC50 (NB69) was 0.873 nM and the IC50 (RPMI-8866) was over 512 nM. For the same molecule, the IC50 (SF-539) was 1.94 nM, the IC50 (SW-620) was 3.02 nM and the IC50 (TE-8) was 1.37 nM. It also gave an IC50 (NCI-H1838) of over 512 nM, an IC50 (BV-173) of 2.81 nM and an IC50 (RCC10RGB) of over 512 nM. For the same molecule, the IC50 (JVM-2) was over 512 nM, the IC50 (NCI-H1563) was 199 nM and the IC50 (Ramos-2G6-4C10) was 0.855 nM. The IC50 (NCI-H1304) was 59.1 nM, the IC50 (MC-CAR) was 24.4 nM and the IC50 (HOS) was 1.96 nM. For the same molecule, the IC50 (SK-UT-1) was 23.3 nM, the IC50 (NB13) was 9.45 nM and the IC50 (NCI-H1693) was over 512 nM. It also gave an IC50 (JVM-3) of 33.6 nM, an IC50 (LB1047-RCC) of 7.05 nM and an IC50 (SK-LMS-1) of under 2 nM. The IC50 (BB65-RCC) was 5.08 nM, the IC50 (OMC-1) was 83 nM and the IC50 697 was under 2 nM. It also gave an IC50 (SK-N-DZ) of 43.2 nM, an IC50 (SK-MEL-1) of over 512 nM and an IC50 (KARPAS-45) of 8.06 nM. The IC50 (KM-H2) was under 2 nM, the IC50 (MeWo) was over 512 nM and the IC50 (NCI-H1395) was 176 nM. The IC50 (A4-Fuk) was under 2 nM, the IC50 (NCI-H2196) was over 512 nM and the IC50 (HOP-62) was 0.601 nM. The IC50 (HCC1187) was 505 nM, the IC50 (MOLT-16) was 4.52 nM and the IC50 (SCC-3) was 41.6 nM. The IC50 (A498) was over 512 nM, the IC50 (GI-1) was 0.549 nM and the IC50 (SK-NEP-1) was 15.9 nM. For the same molecule, the IC50 (MHH-PREB-1) was 12.6 nM and the IC50 (ES5) was over 512 nM.

Reference: ChEMBL document CHEMBL1201861, “Genomics of Drug Sensitity in Cancer screening data, Wellcome Trust Sanger Institute”
